Our source for the IC50 values is patent US11453681B2, “Substituted eneoxindoles and uses thereof” (Gilead Sciences, Inc., priority 2019, dated 2022).

The pIC50 is the IC50 on a negative log10 scale, so that one unit is a factor of ten.

pIC50: −log10 of the molar value.

This test deals with human HPK1 (MAP4K1) (Homo sapiens (Human), UniProt Q92918). Put plainly: HPK1 IC50 Assay. The class given is biochemical. Particulars: recombinant HPK1 kinase domain 0.15 nM, synthetic peptide substrate STK S1, 3 hours at 25° C., time-resolved fluorescence energy transfer; geometric mean of multiple experiments. On the procedure: The enzymatic activity of human HPK1 (MAP4K1) was monitored in a biochemical assay in the presence or absence of compounds and using a synthetic peptide substrate. An increase in phosphorylation of the peptide by HPK1 was indicative of its kinase activity.
Chain of human HPK1 (MAP4K1) (Q92918 17-274): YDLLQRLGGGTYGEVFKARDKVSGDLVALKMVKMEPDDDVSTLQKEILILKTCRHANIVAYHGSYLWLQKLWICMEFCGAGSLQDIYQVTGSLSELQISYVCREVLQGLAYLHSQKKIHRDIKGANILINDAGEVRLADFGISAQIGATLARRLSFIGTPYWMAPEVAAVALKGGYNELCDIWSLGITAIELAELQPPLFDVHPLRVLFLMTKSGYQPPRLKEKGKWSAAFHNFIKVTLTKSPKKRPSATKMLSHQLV
Recombinant HPK1 kinase domain produced via baculovirus infection of insect cells was obtained from Proteros (Proteros Biostructures #PR-0322) and was pre-activated in the presence of 2 mM ATP (Sigma-Aldrich, cat #GE27-2056-01) and 2 mM magnesium chloride for 16 hours at 4° C. The protein reaction mixture was then loaded to a desalting column (Thermo Fisher Scientific, Cat #89889) to remove excess ATP. HPK1 was eluted with buffer containing 20 mM Tris (2-Amino-2-(hydroxymethyl)propane-1,3-diol) pH 8.0, 150 mM NaCl, 2 mM dithiothreitol and 5% glycerol, and was frozen at −80° C. for later use. HPK1 dual phosphorylation was confirmed by mass spectrometry.
Ten nanoliters of test compounds dissolved in DMSO at various concentrations were dispensed into a 384-well ProxiPlate (PerkinElmer #6008289). Five microliters of a solution of recombinant HPK1 diluted in HPK1 kinase assay buffer (50 mM BES [N,N-Bis(2-hydroxyethyl)-2-aminoethanesulfonic acid], pH 7.0; 10 mM magnesium chloride; 0.01% Triton X-100; 1 mM dithiothreitol; 0.01% bovine serum albumin; 0.1 mM sodium orthovanadate) was added to the compound-containing plate and was incubated for 15 minutes at 25° C. Five microliters of a mixture of ATP (Sigma-Aldrich #A6559) and peptide substrate STK Si (Cisbio #61ST1BLC) diluted in HPK1 kinase assay buffer was then added to start the reaction. Final concentrations were 0.15 nM for HPK1, […], and 1 […]. The reaction mixture was incubated at 25° C. for 3 hours and was stopped with the addition of 10 μl of an EDTA (Ethylenediaminetetraacetic acid)-containing detection buffer (Cisbio #62SDBRDF) supplemented with Europium cryptate-labeled anti-phospho-serine/threonine antibodies (Cisbio #62ST1PEJ) and XL665-labeled streptavidin (Cisbio #610SAXLG). The mixture was incubated for 16 hours at room temperature and peptide phosphorylation was measured by time-resolved fluorescence energy transfer (665 nm/620 nm) on an Envision plate reader (PerkinElmer).
Data in Table 1 were normalized based on positive (staurosporine) and negative (DMSO) controls. Least squares curve fittings were performed using a four-parameter variable slope nonlinear regression model. IC50 is defined as the concentration of compound required to inhibit 50% of maximum phosphorylation. IC50 values from multiple experiments were averaged by geometric mean and the standard deviation was calculated.
With `Cc1c(-c2ccc3c(c2)/C(=C/c2cc4ncccc4[nH]2)C(=O)N3)cnc2c1NCCO2` [Compound C57, (Z)-3-((1H-pyrrolo[3,2-b]pyridin-2-yl)methylene)-5-(8-methyl-2,3-dihydro-1H-pyrido[2,3-b][1,4]oxazin-7-yl)indolin-2-one], the pIC50 is 10.30.
`CC/C(=C1/C(=O)Nc2ccc(-c3cnc4c(c3C)NCCO4)cc21)c1cnc[nH]1` [Compound C36, (Z)-3-(1-(1H-imidazol-5-yl)propylidene)-5-(8-methyl-2,3-dihydro-H-pyrido[2,3-b][1,4]oxazin-7-yl)indolin-2-one]: the pIC50 is 9.00.
Under `Cc1ccc(/C=C2\C(=O)Nc3ccc(-c4cnc5c(c4C)NCCO5)cc32)[nH]1` [Compound C17, (Z)-3-((5-methyl-H-pyrrol-2-yl)methylene)-5-(8-methyl-2,3-dihydro-1H-pyrido[2,3-b][1,4]oxazin-7-yl)indolin-2-one] stands 10.30; under `Cc1c(-c2cc3c(cc2Cl)NC(=O)/C3=C\c2cc3ccccc3[nH]2)cnc2c1NCCO2` [Compound C50, (Z)-3-((1H-indol-2-yl)methylene)-6-chloro-5-(8-methyl-2,3-dihydro-1H-pyrido[2,3-b][1,4]oxazin-7-yl)indolin-2-one], 9.72; under `CCc1nc(C)c(/C=C2\C(=O)Nc3ccc(-c4cnc5c(c4C)NCCO5)cc32)[nH]1` [Compound C6, (Z)-3-((2-ethyl-4-methyl-1H-imidazol-5-yl)methylene)-5-(8-methyl-2,3-dihydro-1H-pyrido[2,3-b][1,4]oxazin-7-yl)indolin-2-one], 9.92.
For `Cc1c(-c2cc(F)c3c(c2C)/C(=C/c2cc(C#N)c[nH]2)C(=O)N3)cnc2c1NCCO2` [Compound C12, (Z)-5-((7-fluoro-4-methyl-5-(8-methyl-2,3-dihydro-1H-pyrido[2,3-b][1,4]oxazin-7-yl)-2-oxoindolin-3-ylidene)methyl)-1H-pyrrole-3-carbonitrile], the pIC50 is 9.17.
Under `Cc1c(-c2ccc3c(c2)/C(=C/c2cn[nH]c2)C(=O)N3)cnc2c1NCCO2` [Compound C69, (Z)-3-((1H-pyrazol-4-yl)methylene)-5-(8-methyl-2,3-dihydro-1H-pyrido[2,3-b][1,4]oxazin-7-yl)indolin-2-one] stands 9.59; under `Cc1c(-c2cnc3c(c2)/C(=C/c2cc4cnccc4[nH]2)C(=O)N3)cnc2c1NCCO2` [Compound C47, (Z)-3-((1H-pyrrolo[3,2-c]pyridin-2-yl)methylene)-5-(8-methyl-2,3-dihydro-1H-pyrido[2,3-b][1,4]oxazin-7-yl)-1,3-dihydro-2H-pyrrolo[2,3-b]pyridin-2-one], 8.95.
Under `Cc1c(-c2ccc3c(c2)/C(=C/c2cc4cnccc4[nH]2)C(=O)N3)ccc2c1NC(=O)CO2` [Compound C39, (Z)-6-(3-((1H-pyrrolo[3,2-c]pyridin-2-yl)methylene)-2-oxoindolin-5-yl)-5-methyl-2H-benzo[b][1,4]oxazin-3(4H)-one] stands 8.15; under `Cc1ncc(/C=C2\C(=O)Nc3cc(F)c(-c4cnc5c(c4C)NCCO5)cc32)[nH]1` [Compound C8, (Z)-6-fluoro-3-((2-methyl-H-imidazol-5-yl)methylene)-5-(8-methyl-2,3-dihydro-1H-pyrido[2,3-b][1,4]oxazin-7-yl)indolin-2-one], 9.74.
Under `Cc1c(-c2ccc3c(c2)/C(=C/c2cc4ccncc4[nH]2)C(=O)N3)cnc2c1NCCO2` [Compound C58, (Z)-3-((1H-pyrrolo[2,3-c]pyridin-2-yl)methylene)-5-(8-methyl-2,3-dihydro-1H-pyrido[2,3-b][1,4]oxazin-7-yl)indolin-2-one] stands 9.96.
As for `Cc1c(-c2ccc3c(c2)/C(=C/c2cnc(C4CC4)[nH]2)C(=O)N3)cnc2c1NCCO2` [Compound C34, (Z)-3-((2-cyclopropyl-1H-imidazol-5-yl)methylene)-5-(8-methyl-2,3-dihydro-1H-pyrido[2,3-b][1,4]oxazin-7-yl)indolin-2-one], the pIC50 is 9.89.
Under `Cc1cc2c(cc1-c1cnc3c(c1C)NCCO3)/C(=C/c1cc3ncccc3[nH]1)C(=O)N2` [Compound C38, (Z)-3-((1H-pyrrolo[3,2-b]pyridin-2-yl)methylene)-6-methyl-5-(8-methyl-2,3-dihydro-1H-pyrido[2,3-b][1,4]oxazin-7-yl)indolin-2-one] stands 9.96.
Next, `Cc1c(-c2ccc3c(c2)/C(=C/c2ccns2)C(=O)N3)cnc2c1NCCO2` [Compound C18, (Z)-3-(isothiazol-5-ylmethylene)-5-(8-methyl-2,3-dihydro-1H-pyrido[2,3-b][1,4]oxazin-7-yl)indolin-2-one]: 8.52.
Next, `Cc1c(-c2cc(F)c3c(c2)/C(=C/c2cnc(C4CC4)[nH]2)C(=O)N3)cnc2c1NCCO2` [Compound C35, (Z)-3-((2-cyclopropyl-1H-imidazol-5-yl)methylene)-7-fluoro-5-(8-methyl-2,3-dihydro-1H-pyrido[2,3-b][1,4]oxazin-7-yl)indolin-2-one]: 10.30.
As to `Cc1c(-c2ccc3c(c2)/C(=C/c2ncc[nH]2)C(=O)N3)cnc2c1NCCO2` [Compound C31, (Z)-3-((1H-imidazol-2-yl)methylene)-5-(8-methyl-2,3-dihydro-1H-pyrido[2,3-b][1,4]oxazin-7-yl)indolin-2-one], the pIC50 is 9.11.
Consider `Cc1c(-c2ccc3c(c2)/C(=C/c2cc4cccnc4[nH]2)C(=O)N3)cnc2c1NCCO2` [Compound C61, (Z)-3-((1H-pyrrolo[2,3-b]pyridin-2-yl)methylene)-5-(8-methyl-2,3-dihydro-1H-pyrido[2,3-b][1,4]oxazin-7-yl)indolin-2-one], for which the pIC50 is 8.96.
Under `Cc1c(-c2ccc3c(c2)/C(=C/c2cc(C#N)c[nH]2)C(=O)N3)cnc2c1NCCO2` [Compound C21, (Z)-5-((5-(8-methyl-2,3-dihydro-1H-pyrido[2,3-b][1,4]oxazin-7-yl)-2-oxoindolin-3-ylidene)methyl)-1H-pyrrole-3-carbonitrile] stands 10.15.
Next, `Cc1c(-c2ccc3c(c2)/C(=C/c2cnc[nH]2)C(=O)N3)cnc2c1NCCO2` [Compound C32, (Z)-3-((1H-imidazol-5-yl)methylene)-5-(8-methyl-2,3-dihydro-1H-pyrido[2,3-b][1,4]oxazin-7-yl)indolin-2-one]: 9.59; `Cc1c(-c2cc(F)c3c(c2C)/C(=C/c2cc4ccccc4[nH]2)C(=O)N3)cnc2c1NCCO2` [Compound C56, (Z)-3-((1H-indol-2-yl)methylene)-7-fluoro-4-methyl-5-(8-methyl-2,3-dihydro-1H-pyrido[2,3-b][1,4]oxazin-7-yl)indolin-2-one]: 9.29; `Cc1c(-c2ccc3c(c2)/C(=C/c2ccn[nH]2)C(=O)N3)cnc2c1NCCO2` [Compound C30, (Z)-3-((1H-pyrazol-5-yl)methylene)-5-(8-methyl-2,3-dihydro-1H-pyrido[2,3-b][1,4]oxazin-7-yl)indolin-2-one]: 9.01.
Under `Cc1c(-c2cc(F)c3c(c2C)/C(=C/c2cc4cnccc4[nH]2)C(=O)N3)cnc2c1NCCO2` [Compound C54, (Z)-3-((1H-pyrrolo[3,2-c]pyridin-2-yl)methylene)-7-fluoro-4-methyl-5-(8-methyl-2,3-dihydro-1H-pyrido[2,3-b][1,4]oxazin-7-yl)indolin-2-one] stands 9.57; under `CCN(CC)CCNC(=O)c1c(C)[nH]c(/C=C2\C(=O)Nc3c(F)cc(-c4cnc5c(c4C)NCCO5)cc32)c1C` [Compound C9, (Z)—N-(2-(diethylamino)ethyl)-5-((7-fluoro-5-(8-methyl-2,3-dihydro-1H-pyrido[2,3-b][1,4]oxazin-7-yl)-2-oxoindolin-3-ylidene)methyl)-2,4-dimethyl-1H-pyrrole-3-carboxamide], 10.05; under `Cc1c(-c2cc3c(cc2Cl)NC(=O)/C3=C\c2cc3cnccc3[nH]2)cnc2c1NCCO2` [Compound C48, (Z)-3-((1H-pyrrolo[3,2-c]pyridin-2-yl)methylene)-6-chloro-5-(8-methyl-2,3-dihydro-1H-pyrido[2,3-b][1,4]oxazin-7-yl)indolin-2-one], 9.80.
In the case of `Cc1c(-c2ccc3c(c2)/C(=C/c2ccc[nH]2)C(=O)N3)cnc2c1NCCO2` [Compound C29, (Z)-3-((1H-pyrrol-2-yl)methylene)-5-(8-methyl-2,3-dihydro-1H-pyrido[2,3-b][1,4]oxazin-7-yl)indolin-2-one], the pIC50 was 10.30.
